{"source": "paper PMC4548311", "about": "(Journal of Biomolecular Structure & Dynamics, 2014)", "key": {"[1]": {"test_system": "influenza A virus", "details": "mouse, in vivo; cited from earlier work"}, "[2]": {"target": "monomeric wt NP (nucleoprotein of influenza A virus) (Influenza A virus, UniProt P15682)", "sequence (P15682 whole entry, looked up)": "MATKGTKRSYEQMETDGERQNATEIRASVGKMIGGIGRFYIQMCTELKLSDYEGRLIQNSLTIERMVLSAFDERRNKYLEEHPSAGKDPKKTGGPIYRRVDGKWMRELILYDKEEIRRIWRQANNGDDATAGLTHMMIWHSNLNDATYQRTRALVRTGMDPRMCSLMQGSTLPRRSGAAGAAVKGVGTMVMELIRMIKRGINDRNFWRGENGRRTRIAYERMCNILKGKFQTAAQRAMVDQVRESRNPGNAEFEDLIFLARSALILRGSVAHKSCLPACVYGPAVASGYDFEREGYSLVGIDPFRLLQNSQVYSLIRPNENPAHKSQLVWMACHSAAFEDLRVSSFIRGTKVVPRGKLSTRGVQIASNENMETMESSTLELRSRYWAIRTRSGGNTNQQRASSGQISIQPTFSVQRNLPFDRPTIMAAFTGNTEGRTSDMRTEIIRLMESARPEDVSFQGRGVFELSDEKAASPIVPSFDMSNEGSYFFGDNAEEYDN", "experiment": "biochemical", "type": "binding"}, "[3]": {"test_system": "wt NP", "type": "biochemical"}, "[4]": {"target": "wt NP (Influenza A virus, UniProt P15682)", "sequence (P15682 whole entry, looked up)": "as above", "type": "biochemical"}}}
{"compound": "COc1ccc2cc([C@H](C)C(=O)O)ccc2c1", "note": "[Naproxen, naproxen]", "values": [{"measurement": "antiviral effects in mice", "setting": "[1]", "value": "antiviral effects"}, {"measurement": "lung bleeding", "setting": "[1]", "value": "reduced lung bleeding"}, {"measurement": "% Total inhibition", "setting": "[2]", "value": "70 ± 7", "unit": "%"}, {"measurement": "inhibition at 1 µM", "setting": "[2]; read-out: % Inhibition at 1 µM", "value": 5, "unit": "%"}, {"measurement": "disruption of already assembled trimers", "setting": "[3]", "value": "could not disrupt already assembled trimers"}, {"measurement": "apparent size of the NP–RNA complex", "setting": "[4]", "value": "21–23 nm"}, {"measurement": "effect on NP oligomerization into trimers–tetramers", "setting": "[4]", "value": "stabilized the monomeric form"}, {"measurement": "effect on RNA-free self-association of NP", "setting": "[4]", "value": "stabilized monomeric NP and avoided trimers/tetramers formation"}, {"measurement": "effect on dimer formation", "setting": "[4]", "value": "impeded dimer formation"}]}
